The record followed here is paper PMC12123458, “Unraveling Small Molecule-Mediated Sirtuin 3 Activation at a Distinct Binding Site for Cardioprotective Therapies” (ACS Central Science, 2025).

Molecules are shown by their SMILES.

In assay [1] the test system is LC3, p62, PINK1, Parkin in H9c2 cells. In words: Autophagy/mitophagy markers in H9c2 cells (Western blot, immunofluorescence). It is filed as cell-based. As to conditions: 24 h. Here is the method: Proteomic analysis was conducted on H9c2 cells and murine cardiac tissues. Protein lysates were resolved via SDS-PAGE and transferred onto PVDF membranes. […] After washing, membranes were probed with secondary antibodies for 1 h at room temperature. Detection was facilitated by an ECL kit, with densitometry performed using ImageJ software to quantify protein expression, normalized against controls. The antibodies employed included: anti-SIRT3 (2627, Cell Signaling Technology), anti-acetylated lysine (9441, CST), anti-Ac.K68-MnSOD2 (ab137037, Abcam), anti-Ac.K122-MnSOD2 (ab214675, Abcam), anti-MnSOD2 (13141, CST), anti-LC3B (3868, CST), anti-p62 (8025, CST), anti-PINK1 (6946, CST), anti-Parkin (4211, CST), and anti-β-actin (ab8226, Abcam).
(In western blotting, separated proteins are transferred to a membrane and probed.)

Assay [2] relates to H9c2 cells. The assay is described as follows: Dox-induced cardiotoxicity model in H9c2 cells, MTT cell viability. It is filed as cell-based. As to conditions: for viability at 10 µM: Rattus norvegicus, H9c2, 10 µM pretreatment 24 h, then 1 µM Dox 24 h, MTT, Model (Dox) = Dox alone, read-out: Cardiomyocyte survival rate at 10 uM (%). Here is the method:
H9c2 cardiomyocytes were cultured in high-glucose DMEM supplemented with 10% FBS and 1% penicillin/streptomycin under a 5% CO2 atmosphere at 37 °C. Cells were seeded at 5 × 10^4 cells/mL in 96-well plates and treated with 1 μM Dox for 24 h. After Dox treatment, cell viability was quantified via MTT assay; 3-(4,5-dimethythiazol-2-yl)-2,5-diphenyltetrazolium bromide (MTT, 5 mg/mL) was applied for 4 h, followed by DMSO dissolution of formazan crystals. Additionally, cells were pretreated with 10 μM SKLB-11A for 24 h prior to 1 μM Dox exposure, and viability was similarly assessed using MTT.

For assay [3], the target named is T1, SIRT3 (Homo sapiens, UniProt Q9NTG7).
T1 construct: purchased Enzo Life Sciences BML-AK557-0001
T1 sequence (Q9NTG7 1-399): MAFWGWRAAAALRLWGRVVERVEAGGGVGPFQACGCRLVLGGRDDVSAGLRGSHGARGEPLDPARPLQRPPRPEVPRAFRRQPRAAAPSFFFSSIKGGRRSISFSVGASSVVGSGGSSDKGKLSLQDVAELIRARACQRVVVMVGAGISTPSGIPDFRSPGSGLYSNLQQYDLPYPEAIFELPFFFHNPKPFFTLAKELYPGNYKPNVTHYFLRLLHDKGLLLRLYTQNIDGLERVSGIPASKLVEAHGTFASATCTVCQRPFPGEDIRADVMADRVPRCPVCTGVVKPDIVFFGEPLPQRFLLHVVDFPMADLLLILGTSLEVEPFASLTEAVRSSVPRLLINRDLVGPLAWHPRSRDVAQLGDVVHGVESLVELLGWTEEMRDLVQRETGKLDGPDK
In words: Fluor de Lys (FDL) fluorimetric SIRT3 deacetylase activity assay. The format is biochemical. The settings on record: 0.5 h; 100 µM; FDL deacetylation assay; compared to the control group; mean ± SD; read-out: % effect @ 100 µM of SIRT3. Here is the method: The SIRT3 activity was assessed using the Enzo Life Sciences kit (BML-AK557-0001) per the protocol provided. A 10 μM fluoro-acetylated p53 peptide and 500 μM NAD^+ were added to SIRT3 assay buffer, incubated with test compounds and 0.5 μg recombinant SIRT3 at 37 °C for 30 min. In the mass spectrometry (MS) assay, 5 μM hSirt3 was reacted with 0.25 mM peptide and 1.25 mM NAD^+, with or without 10 μM SKLB-11A in 2% DMSO, at 37 °C. Controls included 2% DMSO without SKLB-11A. The reaction was halted at defined intervals using 5 mM nicotinamide, and the mixture then underwent filtration and subjected to nano LC-MS/MS analysis. Acetylated Peptide: MnSOD-K122 ([…]-Ac).

For `c1cncc(-c2cn[nH]n2)c1` [3-TYP, reference compound], the “LC3-II and p62 (autophagic flux)” value in assay [1] is reported as “reduced LC3-II localization”. For the same molecule, the “effect of co-treatment on the cardioprotective efficacy of SKLB-11A” value in assay [2] (Dox-treated H9c2 cells, cell viability) is listed as “attenuated the efficacy of SKLB-11A”.
For the molecule `Nc1c(C(=O)Oc2ccccc2)c2nc3ccccc3nc2n1Cc1ccc(F)cc1` [SKLB-11E, Phenyl 2-amino-1-(4-fluorobenzyl)-1H-pyrrolo[2,3-b]quinoxaline-3-carboxylate], the activity at 100 µM in assay [3] amounted to 130.6 ± 1.27%. Also, the viability at 10 µM in assay [2] came to 71.3 ± 4.34%.
Take `CC(C)(C)OC(=O)c1c(N)n(Cc2ccccc2)c2nc3ccccc3nc12` [SKLB-11F, Tert-butyl 2-amino-1-benzyl-1H-pyrrolo[2,3-b]quinoxaline-3-carboxylate]: in assay [3], the activity at 100 µM came out at 122.7 ± 0.59%. In addition, in assay [2], the viability at 10 µM came out at 69 ± 1.22%.
For `Cc1ccc(Cn2c(N)c(C(=O)OC(C)(C)C)c3nc4ccccc4nc32)cc1` [SKLB-11G, Tert-butyl 2-amino-1-(4-methylbenzyl)-1H-pyrrolo[2,3-b]quinoxaline-3-carboxylate], the activity at 100 µM in assay [3] was 107 ± 1.42%. Besides, the viability at 10 µM in assay [2] was 63.93 ± 0.62%.
`COc1ccc(Cn2c(N)c(C(=O)OC(C)(C)C)c3nc4ccccc4nc32)cc1` [SKLB-11H, Tert-butyl 2-amino-1-(4-methoxybenzyl)-1H-pyrrolo[2,3-b]quinoxaline-3-carboxylate]: in assay [3], the activity at 100 µM worked out at 125.7 ± 0.91%. The viability at 10 µM in assay [2] turned out to be 68.7 ± 4.61%.
`NC(=O)c1c(N)n(Cc2ccc(F)cc2)c2nc3ccccc3nc12` [SKLB-11I, 2-amino-1-(4-fluorobenzyl)-1H-pyrrolo[2,3-b]quinoxaline-3-carboxamide]: in assay [3], the activity at 100 µM is 135 ± 2.43%. Also, the viability at 10 µM in assay [2] turned out to be 70.8 ± 3.76%.
For the molecule `CNC(=O)c1c(N)n(Cc2ccc(F)cc2)c2nc3ccccc3nc12` [SKLB-11J, 2-amino-1-(4-fluorobenzyl)-N-methyl-1H-pyrrolo[2,3-b]quinoxaline-3-carboxamide], the activity at 100 µM in assay [3] was 150 ± 1.75%. In assay [2], the viability at 10 µM came out at 72.4 ± 2.21%.
Regarding `CCNC(=O)c1c(N)n(Cc2ccc(F)cc2)c2nc3ccccc3nc12` [SKLB-11K, 2-amino-N-ethyl-1-(4-fluorobenzyl)-1H-pyrrolo[2,3-b]quinoxaline-3-carboxamide], the activity at 100 µM in assay [3] was 144.3 ± 0.82%. The viability at 10 µM in assay [2] turned out to be 71.5 ± 2.09%.
Consider `CCCCNC(=O)c1c(N)n(Cc2ccc(F)cc2)c2nc3ccccc3nc12` [SKLB-11L, 2-amino-N-butyl-1-(4-fluorobenzyl)-1H-pyrrolo[2,3-b]quinoxaline-3-carboxamide], for which the activity at 100 µM in assay [3] was found to be 123.6 ± 0.95%. The viability at 10 µM in assay [2] worked out at 67.1 ± 1.6%.
Regarding `Nc1c(C(=O)NC2CC2)c2nc3ccccc3nc2n1Cc1ccc(F)cc1` [SKLB-11M, 2-amino-N-cyclopropyl-1-(4-fluorobenzyl)-1H-pyrrolo[2,3-b]quinoxaline-3-carboxamide], the activity at 100 µM in assay [3] turned out to be 104 ± 1.75%. Besides, the viability at 10 µM in assay [2] is 64.5 ± 0.87%.
Regarding `CCCCCNC(=O)c1c(N)n(Cc2ccccc2)c2nc3ccccc3nc12` [SKLB-11N, 2-amino-1-benzyl-N-pentyl-1H-pyrrolo[2,3-b]quinoxaline-3-carboxamide], the activity at 100 µM in assay [3] was 119 ± 3.3%. In addition, in assay [2], the viability at 10 µM amounted to 66.3 ± 4.52%.
On to `CCCCCNC(=O)c1c(N)n(Cc2ccc(Br)cc2)c2nc3ccccc3nc12` [SKLB-11O, 2-amino-1-(4-bromobenzyl)-N-pentyl-1H-pyrrolo[2,3-b]quinoxaline-3-carboxamide], for which the activity at 100 µM in assay [3] turned out to be 126 ± 1.32%. For the same molecule, the viability at 10 µM in assay [2] was 69.2 ± 1.35%.
Take `CCCCCNC(=O)c1c(N)n(Cc2cccc(Br)c2)c2nc3ccccc3nc12` [SKLB-11P, 2-amino-1-(3-bromobenzyl)-N-pentyl-1H-pyrrolo[2,3-b]quinoxaline-3-carboxamide]: the activity at 100 µM in assay [3] came to 116.2 ± 0.57%. Moreover, in assay [2], the viability at 10 µM was 65.8 ± 4.18%.
Consider `CCCCCNC(=O)c1c(N)n(Cc2cccc(Cl)c2)c2nc3ccccc3nc12` [SKLB-11Q, 2-amino-1-(3-chlorobenzyl)-N-pentyl-1H-pyrrolo[2,3-b]quinoxaline-3-carboxamide], for which the activity at 100 µM in assay [3] stood at 118 ± 0.63%. In assay [2], the viability at 10 µM was found to be 66.5 ± 1.19%.
